For test [1], the system named is neuroblastoma cell culture. Description: Intracellular whole lysine acetylation via FACS. The test is classed as cell-based, human. As to the method:
Cells were collected, washed with PBS and fixed with 2% paraformaldehyde for 15 min at room temperature (RT). Cells were permeabilized by incubation with 50 μg/ml digitonin for 6 min at RT. Cells were incubated with primary antibody overnight at 4 °C. After staining with Cy3-conjugated anti-rabbit antibody, cells were analyzed by FACS using CellQuest software (BD Biosciences, San Jose, CA, USA). The following primary antibodies were used: anti-acetylated lysine (polyclonal; Cell Signaling) and anti-neurofilament-M (clone EP2460; Epitomics, Burlingame, CA, USA).

The target in test [2] is HDAC1 (Homo sapiens, UniProt Q13547). Nature of the test: In vitro HDAC activity assay (Reaction Biology). The test is classed as biochemical. Conditions: cell-free; symbol; read-out: IC50 values of HDAC8 inhibitors, HDAC1.
Sequence of HDAC1 (Q13547 9-321 limits assumed): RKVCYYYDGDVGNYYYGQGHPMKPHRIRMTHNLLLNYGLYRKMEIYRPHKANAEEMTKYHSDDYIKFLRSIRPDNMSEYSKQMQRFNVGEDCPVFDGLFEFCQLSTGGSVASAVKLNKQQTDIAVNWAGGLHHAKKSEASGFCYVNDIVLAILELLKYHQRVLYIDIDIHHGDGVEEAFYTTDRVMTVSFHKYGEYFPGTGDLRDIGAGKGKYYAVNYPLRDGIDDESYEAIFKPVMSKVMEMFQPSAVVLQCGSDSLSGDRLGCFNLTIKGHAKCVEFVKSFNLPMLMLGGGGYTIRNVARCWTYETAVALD
The test system of test [3] is PBMC. Nature of the test: Western blot of histone 4 and α-tubulin acetylation in PBMC of treated mice. The conditions noted are these: MTD concentrations, 2 h after intraperitoneal injection. The test is classed as in vivo, mouse. As to the method: Whole blood (100 μl) was collected from the femoral vein of untreated athymic NMRI nude mice (HsdCpb:NMRI-Foxn1^nu; Harlan Laboratories Inc.), and respective animals were killed 2 h after intraperitoneal injection of substances. For the analysis of whole acetylation levels, mice were killed at half-life time of the inhibitors. Whole blood with heparin was added to RBC lysis buffer (diluted 1 : 10) (BioLegend, San Diego, CA, USA) at a ratio of 1 : 4. Next, red blood cell lysis was performed according to the manufacturer's instructions. PBMCs were lysed in SDS lysis buffer for western blot or processed for FACS analysis.
Western blot analysis was performed as described previously.[15] For detection of phosphoproteins, PhosStop (Roche, Penzberg, Germany) was added to the lysis buffer. The following antibodies were used for detection: anti-HDAC8 (H-145) (polyclonal; Santa Cruz, Santa Cruz, CA, USA), anti-acetyl tubulin (clone 6-11B-1; Sigma), anti-acetyl-histone H4 (polyclonal; Upstate, Lake Placid, NY, USA), anti-acetyl-SMC3 (provided by Prof. K Shirahige, University of Tokyo, Tokyo, Japan), anti p21^waf1/cip1 (clone CP74; Merck), anti-Trk (C-14) (polyclonal; Santa Cruz), anti-neurofilament-M (polyclonal; Merck), anti-β-actin (clone AC-15; Sigma), anti-P-CREB (Ser133; Cell Signaling, Danvers, MA, USA), anti-CREB (48H2; Cell Signaling) and anti-GAPDH (clone 6C5; Merck).

In test [4] the target is HDAC3 (Homo sapiens, UniProt O15379). Description: In vitro HDAC activity assay (Reaction Biology). The test is classed as biochemical. Conditions: cell-free; read-out: IC50 values of HDAC8 inhibitors, HDAC3. As to the method:
(§1) Peptide substrate was conjugated with AMC. […] The HDAC reaction was performed at 30 °C for 2 h before adding the developer reagent. The free AMC was detected with excitation of 360 nm and emission 460 nm at kinetic mode for 90 min. IC50 values were calculated with GraphPad Prism version 3.0a (GraphPad Software Inc., San Diego, CA, USA).

The target in test [5] is HDAC4 (Homo sapiens, UniProt P56524). Nature of the test: In vitro HDAC activity assay (Reaction Biology). The test is classed as biochemical. The conditions noted are these: cell-free; read-out: IC50 values of HDAC8 inhibitors, HDAC4. As to the method:
as §1

In test [6] the target is T1, HDAC7 (Homo sapiens, UniProt Q8WUI4).
T1 sequence (Q8WUI4 512-865 limits assumed): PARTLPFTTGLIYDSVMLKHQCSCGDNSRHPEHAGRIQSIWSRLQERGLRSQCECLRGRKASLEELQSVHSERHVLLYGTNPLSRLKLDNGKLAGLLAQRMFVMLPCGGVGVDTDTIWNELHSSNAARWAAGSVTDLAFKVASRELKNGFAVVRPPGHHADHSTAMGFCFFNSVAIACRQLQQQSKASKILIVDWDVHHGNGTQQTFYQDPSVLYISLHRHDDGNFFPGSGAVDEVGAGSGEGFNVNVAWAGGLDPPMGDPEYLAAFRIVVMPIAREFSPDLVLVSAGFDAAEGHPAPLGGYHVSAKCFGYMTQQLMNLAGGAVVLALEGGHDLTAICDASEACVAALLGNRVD
Description: In vitro HDAC activity assay (Reaction Biology). The test is classed as biochemical. The conditions noted are these: cell-free; read-out: IC50 values of HDAC8 inhibitors, HDAC7. As to the method: as §1

Test [7] addresses HDAC5 (Homo sapiens, UniProt Q9UQL6). Description: In vitro HDAC activity assay (Reaction Biology). The test is classed as biochemical. The conditions noted are these: cell-free; read-out: IC50 values of HDAC8 inhibitors, HDAC5. The protocol:
as §1

In test [8] the target is T2, HDAC10 (Homo sapiens, UniProt Q969S8).
T2 sequence (Q969S8 1-323 limits assumed): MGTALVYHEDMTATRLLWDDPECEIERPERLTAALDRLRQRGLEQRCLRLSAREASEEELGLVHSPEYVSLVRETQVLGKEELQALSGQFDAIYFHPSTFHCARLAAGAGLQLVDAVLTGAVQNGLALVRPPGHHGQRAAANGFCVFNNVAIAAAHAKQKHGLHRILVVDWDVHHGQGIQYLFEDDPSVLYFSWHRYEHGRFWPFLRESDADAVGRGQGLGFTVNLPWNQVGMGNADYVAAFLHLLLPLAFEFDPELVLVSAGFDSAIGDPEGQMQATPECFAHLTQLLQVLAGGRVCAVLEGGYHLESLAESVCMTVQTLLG
Description: In vitro HDAC activity assay (Reaction Biology). Conditions: cell-free; read-out: IC50 values of HDAC8 inhibitors, HDAC10. The test is classed as biochemical. As to the method:
as §1

Test [9] concerns the target T3, HDAC11 (Homo sapiens, UniProt Q96DB2).
T3 sequence (Q96DB2 14-326 limits assumed): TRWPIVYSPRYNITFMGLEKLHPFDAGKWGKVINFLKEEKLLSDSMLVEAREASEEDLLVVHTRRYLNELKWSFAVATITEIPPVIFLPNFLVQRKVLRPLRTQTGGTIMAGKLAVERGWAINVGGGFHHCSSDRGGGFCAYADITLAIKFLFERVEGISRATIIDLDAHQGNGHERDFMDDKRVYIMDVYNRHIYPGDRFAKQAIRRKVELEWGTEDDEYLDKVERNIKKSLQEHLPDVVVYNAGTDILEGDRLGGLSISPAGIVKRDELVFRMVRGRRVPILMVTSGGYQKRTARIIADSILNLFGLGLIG
Description: In vitro HDAC activity assay (Reaction Biology). The test is classed as biochemical. The conditions noted are these: cell-free; read-out: IC50 values of HDAC8 inhibitors, HDAC11. As to the method:
as §1

Test [10] concerns the target HDAC9 (Homo sapiens, UniProt Q9UKV0). Description: In vitro HDAC activity assay (Reaction Biology). The test is classed as biochemical. The conditions noted are these: cell-free; read-out: IC50 values of HDAC8 inhibitors, HDAC9. The protocol: as §1

The values that follow come from publication PMC4669789, “Selective inhibition of HDAC8 decreases neuroblastoma growth in vitro and in vivo and enhances retinoic acid-mediated differentiation” (Cell Death & Disease, 2015).

The term IC50 denotes the midpoint of a concentration-inhibition curve.

Sequence of HDAC9 (Q9UKV0 631-978 limits assumed): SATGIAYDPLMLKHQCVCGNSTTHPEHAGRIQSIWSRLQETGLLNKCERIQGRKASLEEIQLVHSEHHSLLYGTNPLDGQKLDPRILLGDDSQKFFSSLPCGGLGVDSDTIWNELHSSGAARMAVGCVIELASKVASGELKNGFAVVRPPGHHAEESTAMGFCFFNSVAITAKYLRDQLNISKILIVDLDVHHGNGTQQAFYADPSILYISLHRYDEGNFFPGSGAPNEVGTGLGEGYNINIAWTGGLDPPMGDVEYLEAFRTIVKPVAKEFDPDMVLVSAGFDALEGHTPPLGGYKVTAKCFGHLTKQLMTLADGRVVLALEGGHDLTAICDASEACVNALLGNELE
Sequence of HDAC4 (P56524 655-1084 limits assumed): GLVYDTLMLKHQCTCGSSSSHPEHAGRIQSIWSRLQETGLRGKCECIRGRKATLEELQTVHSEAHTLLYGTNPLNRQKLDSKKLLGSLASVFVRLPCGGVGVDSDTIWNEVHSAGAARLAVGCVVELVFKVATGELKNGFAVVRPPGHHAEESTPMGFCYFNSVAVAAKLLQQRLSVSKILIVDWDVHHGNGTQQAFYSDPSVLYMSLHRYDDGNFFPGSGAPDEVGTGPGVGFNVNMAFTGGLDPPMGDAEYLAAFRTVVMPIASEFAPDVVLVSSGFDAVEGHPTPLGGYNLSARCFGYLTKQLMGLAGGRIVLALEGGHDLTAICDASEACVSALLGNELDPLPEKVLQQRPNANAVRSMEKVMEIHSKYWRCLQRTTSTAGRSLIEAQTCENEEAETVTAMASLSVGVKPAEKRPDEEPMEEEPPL
Sequence of HDAC3 (O15379 3-316 limits assumed): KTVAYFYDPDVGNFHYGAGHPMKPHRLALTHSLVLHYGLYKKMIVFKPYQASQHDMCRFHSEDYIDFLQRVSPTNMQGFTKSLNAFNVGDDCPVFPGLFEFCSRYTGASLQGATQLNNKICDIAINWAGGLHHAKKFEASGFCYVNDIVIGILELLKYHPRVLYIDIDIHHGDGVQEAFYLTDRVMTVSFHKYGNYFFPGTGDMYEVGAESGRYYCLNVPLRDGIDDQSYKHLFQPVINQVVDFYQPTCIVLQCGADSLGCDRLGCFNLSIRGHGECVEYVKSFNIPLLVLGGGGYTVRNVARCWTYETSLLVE
Sequence of HDAC3 (Q9Y618 395-489 partner limits assumed): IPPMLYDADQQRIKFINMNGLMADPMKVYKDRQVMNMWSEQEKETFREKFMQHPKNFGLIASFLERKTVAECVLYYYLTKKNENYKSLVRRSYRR
Sequence of HDAC5 (Q9UQL6 684-1028 limits assumed): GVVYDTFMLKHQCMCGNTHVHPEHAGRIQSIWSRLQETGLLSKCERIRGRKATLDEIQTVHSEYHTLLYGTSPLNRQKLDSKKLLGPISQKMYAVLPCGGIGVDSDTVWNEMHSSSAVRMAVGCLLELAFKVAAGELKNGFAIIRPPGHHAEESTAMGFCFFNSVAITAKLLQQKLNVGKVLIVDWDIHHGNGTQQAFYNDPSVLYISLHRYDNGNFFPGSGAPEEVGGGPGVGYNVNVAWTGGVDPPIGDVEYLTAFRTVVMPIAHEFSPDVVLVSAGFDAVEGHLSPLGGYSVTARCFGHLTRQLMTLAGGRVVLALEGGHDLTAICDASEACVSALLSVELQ

As to `O=C(NO)c1cccc2ccccc12` [Cpd2, 1-naphthohydroxamic acid], the “whole acetyl-lysine mean fluorescent values (Blank-corrected)” value in [1] (20µM, solvent 34.4, second experiment) is 56.9; in [1] (40µM, solvent 24.7, IMR-32 cells, 24 h per Figure 1c) it was 36.9. Moreover, the IC50 in test [2], in [4], in [5], in [6], in test [7] and in [8] was more than 75.6 µM each time. For the same compound, the IC50 in test [9] and in test [10] was more than 75.6 µM throughout. The “tubulin and histone 4 acetylation in PBMC” value in test [3] was “absence of tubulin acetylation and absence of histone 4 acetylation”.
